{"source": "patent US20250236627A1", "about": "“CERTAIN OCTAHYDROFURO[3,4- B]PYRAZINES AS GLP-1 RECEPTOR MODULATORS” (ASTRAZENECA AB, priority 2021, published 2025)", "key": {"[1]": {"molecular_target": "T1, endogenous human glucagon-like peptide 1 receptor (GLP-1R) (Homo sapiens, UniProt P43220)", "T1 construct": "endogenous human glucagon-like peptide 1 receptor (GLP-1R) in a pancreatic insulinoma cell line; host or cells: EndoC-βH1 human pancreatic β cell line", "T1 sequence (P43220 24-463)": "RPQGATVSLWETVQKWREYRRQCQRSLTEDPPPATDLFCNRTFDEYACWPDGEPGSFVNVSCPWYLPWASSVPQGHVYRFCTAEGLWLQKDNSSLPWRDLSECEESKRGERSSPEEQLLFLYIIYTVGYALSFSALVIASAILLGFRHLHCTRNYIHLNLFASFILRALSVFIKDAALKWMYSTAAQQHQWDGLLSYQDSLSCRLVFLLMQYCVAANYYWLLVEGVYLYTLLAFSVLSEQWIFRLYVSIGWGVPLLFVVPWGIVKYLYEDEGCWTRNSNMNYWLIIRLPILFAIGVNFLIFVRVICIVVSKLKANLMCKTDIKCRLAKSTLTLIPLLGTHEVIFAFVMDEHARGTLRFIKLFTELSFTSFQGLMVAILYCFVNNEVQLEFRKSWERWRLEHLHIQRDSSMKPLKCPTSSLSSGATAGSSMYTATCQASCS", "experiment": "EndoC cAMP Accumulation Assay", "assay_type": "cell-based", "conditions": "EndoC-βH1 human pancreatic β cell line; HTRF cAMP assay", "source_text": "EndoC cAMP Accumulation Assay\nA HTRF (Homogeneous Time-Resolved Fluorescence) cAMP assay (cAMP Gs dynamic kit; CisoBio Cat #62AM4PEJ) was used to identify agonists of the endogenous human glucagon-like peptide 1 receptor (GLP-1R) in a pancreatic insulinoma cell line (EndoC-βH1). […] EndoC-βH1 cells have detectable GLP-1R mRNA as detected by qPCR^1. […] The EndoC-βH1 cell line is a valid model of human beta cells and applicable for screenings to identify novel drug target candidates (Mol. Metab., 2018, 8, 144-157). CisBio HTRF cAMP kits are based on a competitive immunoassay using cryptate-labelled anti-cAMP antibody and d2-labeled cAMP. The detection kit is intended for the direct quantitative determination of cAMP. The specific signal (i.e. energy transfer) is inversely proportional to the concentration of cAMP in the standard or sample. Test compounds (10 mM in DMSO) were diluted into assay buffer (HBSS (Sigma #H8264) supplemented with 25 mM HEPES (Gibco #15630, pH 7.4), 0.1% BSA (Sigma #A3059) and 0.5 mM IBMX (Sigma #I7018) included fresh on the day of the assay) into 96 well U-bottom plates (Greiner #650201). Diluted compounds were transferred to ECHO source PP plates (Labcyte #P-05525) and dose response curves were dispensed acoustically using ECHO 550 into black shallow-well u-bottom 384-well HTRF Assay Plates (Corning 4514).\nCryovials of EndoC-H1 (supplied at 1×10e^7 cells/vial) were used directly for screening. The cryovials and were removed from LN2 and thawed rapidly in a 37° C. water bath. The cells were resuspended in assay buffer and centrifuged at 300 g for 5 min. Cells were resuspended in assay buffer at the appropriate concentration, typically at 12e5 cells per mL (3000 cells per well, dependent on cell batch) and 2.5 μL diluted cells were added to all wells of destination plate by Multidrop combi reagent dispenser (Thermofisher). The plates were incubated at room temperature for 30 min. The assay was stopped by adding 2.5 μL anti-cAMP cryptate solution to all wells and 2.5 μL cAMP-d2 solution (both diluted 1:20 in lysis buffer) to columns 1-22 by Combi drop. A volume of 2.5 μL cAMP-d2 solution was added to wells E23 to P24 and 2.5 μL lysis buffer added to wells A23 to D24 by multichannel pipette. The plates were incubated at room temperature for 1 hr and read on an Envision plate reader using excitation wavelength of 320 nm and emission of 590 nm and 660 nm.\nRaw data from Envision is converted to % DeltaF according to the manufacturer's instructions. Dose response curves are analysed via 4-Parameter Logistical Analysis and assay plate Z′ values obtained. Samples are graphed as percentage (%) activation plots compared to GIP (1-42, Bachem H-5645) with assay window defined by negative control as basal cell cAMP levels and positive control are defined by maximum GIP (82.5 nM) signal. GLP1 (7-36 amide, Bachem H-6795) dose response curve was included on all plates."}, "[2]": {"molecular_target": "T2, human GLP-1R receptor (Homo sapiens, UniProt P43220, L260F)", "T2 construct": "expressed in transfected cells; host or cells: CHO-K1 (ATCC CCL-61)", "T2 sequence (P43220 24-463 L260F)": "as the sequence (P43220 24-463) above, with L237F counted along it", "experiment": "CHOK1 GLP-1R cAMP Assay", "assay_type": "cell-based", "conditions": "CHO-K1 cell line stably expressing human GLP-1R; HTRF cAMP detection", "experimental": "A cell line stably expressing the human GLP-1R receptor (NM_002062.5, including the naturally-occurring variant Leu260Phe) in a CHO-K1 (ATCC® CCL-61™) was used for assay.\nGLP-1 Receptor mediated agonist activity was determined in a cell based assay measuring cAMP levels in cells using Homogeneous Time-Resolved Fluorescence (HTRF) cAMP detection kit (CisBio catalog #62AM4PEC, cAMP Gs Dynamic range kit). The cAMP detection method is based on a competitive immunoassay, in which cAMP produced by the cells and cAMP labeled with the dye d2 compete for binding to a Europium-Cryptate-labeled anti-cAMP antibody. The specific HTRF signal is inversely proportional to the concentration of cAMP.\nCompounds were added to individual well in 384 well-assay plates (Greiner #784076) using an Echo (LabCyte) dispenser from 10 mM stocks. Varying concentration of compounds were added to wells, and dimethyl sulfoxide was used to normalize each well to a volume of 100 nanoliter. A dose response curve of GLP1(7-36)NH2 (Bachem H-6795) was included in each run. 5 μL of cAMP concentration response standards are applied in specified wells in the assay plates.\nCryo-preserved cells are thawed and resuspended in assay buffer pre-heated to 37° C. (20 mM 2-[4-(2-hydroxyethyl)piperazin-1-yl]ethanesulfonic acid (HEPES) pH 7.4, lx Hank's Balanced Salt Solution (HBSS, Life Technologies #14065) supplemented with 0.1% (w/v) bovine serum albumin (Sigma, A-7030)). Cells were centrifuged at 250*g for 5 min at room temperature, and resuspend in room tempered assay buffer to a final density of 0.16*10^6 cell/mL, to deliver 800 cells/well. 5 μL of assay buffer with 1 mM 3-isobutyl-1-methylxanthin (IBMX; Sigma cat I-7018) was dispensed per well in assay plates using a multidrop combi (Thermo Scientific) subsequently 5 μL of cell suspension was distributed to relevant wells in the assay using a multidrop dispenser. Assay plates were incubated 20 min at room temperature.\nDetection reagents, Europium-Cryptate-labeled anti-cAMP antibody and cAMP labeled with the dye d2, are diluted in lysis buffer, provided by the manufacturer. 5 μL of each detection reagent is supplemented to each assay well using a multidrop dispenser. Assay plates are incubated in the dark for at least one hour. The HTRF signal is measured using the HTRF module (excitation: 337 nm, emission A: 665 nm and emission B: 620 nm) in Pherastar FSX (BMG Labtech).\nRaw data were converted to pM cAMP using the cAMP standard curve included in each run. Converted data were further analyzed in Genedata Screener (Genedata) and EC50 determinations were made from agonist dose-response curves analyzed with a curve fitting program using a 4-parameter logistic dose response equation (Equation y=A+((B−A)/1+((C/x)^D))) where A is no stimulation, B is full stimulation, C is the EC50 and D is the Hill slope). The percent effect was determined relative to a saturating concentration of a full GLP-1R agonist (GLP1(7-36)NH2 has 100% effect in this assay setup)."}}, "data": [{"smiles": "C[C@]1(c2ccc(Cl)cn2)Oc2cccc(N3CCN(Cc4nc5c(F)cc(C(=O)O)cc5n4C[C@@H]4CCO4)[C@H]4COC[C@H]43)c2O1", "note": "(single isomer, unassigned) [Example 9c, 2-((4aR*,7aS*)-4-((R*)-2-(5-Chloropyridin-2-yl)-2-methylbenzo[d][1,3]dioxol-4-yl)hexahydrofuro[3,4-b]pyrazin-1(2H)-yl)methyl)-4-fluoro-1-(((S)-oxetan-2-yl)methyl)-1H-benzo[d]imidazole-6-carboxylic acid]", "values": [{"measurement": "EC50", "setting": "[1]", "result": 1100, "unit": "nM"}, {"measurement": "EC50", "setting": "[2]", "result": 570, "unit": "nM"}]}, {"smiles": "C[C@]1(c2ccc(Cl)cn2)Oc2cccc(N3CCN(Cc4nc5ccc(C(=O)O)cc5n4CCn4cccn4)[C@H]4COC[C@H]43)c2O1", "note": "(single isomer, unassigned) [Example 10]", "values": [{"measurement": "EC50", "setting": "[1]", "result": 76, "unit": "nM"}, {"measurement": "EC50", "setting": "[2]", "result": 160, "unit": "nM"}]}, {"smiles": "C[C@]1(c2ccc(Cl)cn2)Oc2cccc(N3CCN(Cc4nc5c(F)cc(C(=O)O)cc5n4CCn4cccn4)[C@H]4COC[C@H]43)c2O1", "note": "(single isomer, unassigned) [Example 11]", "values": [{"measurement": "EC50", "setting": "[1]", "result": 35, "unit": "nM"}, {"measurement": "EC50", "setting": "[2]", "result": 96, "unit": "nM"}]}, {"smiles": "C[C@]1(c2ccc(Cl)cn2)Oc2cccc(N3CCN(Cc4nc5c(F)cc(C(=O)O)cc5n4C[C@@H]4CCCO4)[C@H]4COC[C@H]43)c2O1", "note": "(single isomer, unassigned) [Example 12a, 2-(((4aR*,7aS*)-4-((R*)-2-(5-Chloropyridin-2-yl)-2-methylbenzo[d][1,3]dioxol-4-yl)hexahydrofuro[3,4-b]pyrazin-1(2H)-yl)methyl)-4-fluoro-1-(((S)-tetrahydrofuran-2-yl)methyl)-1H-benzo[d]imidazole-6-carboxylic acid]", "values": [{"measurement": "EC50", "setting": "[1]", "result": 7.6, "unit": "nM"}, {"measurement": "EC50", "setting": "[2]", "result": 8, "unit": "nM"}]}, {"smiles": "C[C@]1(c2ccc(Cl)cn2)Oc2cccc(N3CCN(Cc4nc5c(F)cc(C(=O)O)cc5n4C[C@@H]4CCCO4)[C@H]4COC[C@H]43)c2O1", "note": "(single isomer, unassigned) [Example 12b, 2-(((4aR*,7aS*)-4-((R*)-2-(5-Chloropyridin-2-yl)-2-methylbenzo[d][1,3]dioxol-4-yl)hexahydrofuro[3,4-b]pyrazin-1(2H)-yl)methyl)-4-fluoro-1-(((S)-tetrahydrofuran-2-yl)methyl)-1H-benzo[d]imidazole-6-carboxylic acid]", "values": [{"measurement": "EC50", "setting": "[1]", "result": 91, "unit": "nM"}, {"measurement": "EC50", "setting": "[2]", "result": 61, "unit": "nM"}]}, {"smiles": "C[C@]1(c2ccc(Cl)cc2F)Oc2cccc(N3CCN(Cc4nc5c(F)cc(C(=O)O)cc5n4Cc4cccnc4)[C@H]4COC[C@H]43)c2O1", "note": "(single isomer, unassigned) [Example 13a]", "values": [{"measurement": "EC50", "setting": "[1]", "result": 13, "unit": "nM"}, {"measurement": "EC50", "setting": "[2]", "result": 55, "unit": "nM"}]}, {"smiles": "C[C@]1(c2ccc(Cl)cc2F)Oc2cccc(N3CCN(Cc4nc5c(F)cc(C(=O)O)cc5n4Cc4cccnc4)[C@H]4COC[C@H]43)c2O1", "note": "(single isomer, unassigned) [Example 13b]", "values": [{"measurement": "EC50", "setting": "[1]", "result": 290, "unit": "nM"}, {"measurement": "EC50", "setting": "[2]", "result": 680, "unit": "nM"}]}, {"smiles": "C[C@]1(c2ccc(Cl)cn2)Oc2cccc(N3CCN(Cc4nc5c(Cl)cc(C(=O)O)cc5n4C[C@@H]4CCO4)[C@H]4COC[C@H]43)c2O1", "note": "(single isomer, unassigned) [Example 14a, 4-Chloro-2-(((4aR*,7aS*)-4-((R*)-2-(5-chloropyridin-2-yl)-2-methylbenzo[d][1,3]dioxol-4-yl)hexahydrofuro[3,4-b]pyrazin-1(2H)-yl)methyl)-1-(((S)-oxetan-2-yl)methyl)-1H-benzo[d]imidazole-6-carboxylic acid]", "values": [{"measurement": "EC50", "setting": "[1]", "result": 3.3, "unit": "nM"}, {"measurement": "EC50", "setting": "[2]", "result": 1.5, "unit": "nM"}]}, {"smiles": "C[C@]1(c2ccc(Cl)cn2)Oc2cccc(N3CCN(Cc4nc5c(Cl)cc(C(=O)O)cc5n4C[C@@H]4CCO4)[C@H]4COC[C@H]43)c2O1", "note": "(single isomer, unassigned) [Example 14b, 4-Chloro-2-(((4aR*,7aS*)-4-((R*)-2-(5-chloropyridin-2-yl)-2-methylbenzo[d][1,3]dioxol-4-yl)hexahydrofuro[3,4-b]pyrazin-1(2H)-yl)methyl)-1-(((S)-oxetan-2-yl)methyl)-1H-benzo[d]imidazole-6-carboxylic acid]", "values": [{"measurement": "EC50", "setting": "[1]", "result": 600, "unit": "nM"}, {"measurement": "EC50", "setting": "[2]", "result": 170, "unit": "nM"}]}, {"smiles": "C[C@]1(c2ccc(Cl)cn2)Oc2cccc(N3CCN(Cc4nc5c(Cl)cc(C(=O)O)cc5n4C[C@@H]4CCO4)[C@H]4COC[C@H]43)c2O1", "note": "(single isomer, unassigned) [Example 14c, 4-Chloro-2-(((4aR*,7aS*)-4-((R*)-2-(5-chloropyridin-2-yl)-2-methylbenzo[d][1,3]dioxol-4-yl)hexahydrofuro[3,4-b]pyrazin-1(2H)-yl)methyl)-1-(((S)-oxetan-2-yl)methyl)-1H-benzo[d]imidazole-6-carboxylic acid]", "values": [{"measurement": "EC50", "setting": "[1]", "result": 230, "unit": "nM"}, {"measurement": "EC50", "setting": "[2]", "result": 180, "unit": "nM"}]}, {"smiles": "C[C@]1(c2ccc(Cl)cn2)Oc2cccc(N3CCN(Cc4nc5c(Cl)cc(C(=O)O)cc5n4C[C@@H]4CCO4)[C@H]4COC[C@H]43)c2O1", "note": "(single isomer, unassigned) [Example 14d, 4-Chloro-2-(((4aR*,7aS*)-4-((R*)-2-(5-chloropyridin-2-yl)-2-methylbenzo[d][1,3]dioxol-4-yl)hexahydrofuro[3,4-b]pyrazin-1(2H)-yl)methyl)-1-(((S)-oxetan-2-yl)methyl)-1H-benzo[d]imidazole-6-carboxylic acid]", "values": [{"measurement": "EC50", "setting": "[1]", "result": 480, "unit": "nM"}, {"measurement": "EC50", "setting": "[2]", "result": 190, "unit": "nM"}]}, {"smiles": "C[C@]1(c2ccc(Cl)cc2F)Oc2cccc(N3CCN(Cc4nc5c(Cl)cc(C(=O)O)cc5n4C[C@@H]4CCO4)[C@H]4COC[C@H]43)c2O1", "note": "(single isomer, unassigned) [Example 15b, 4-Chloro-2-(((4aR*,7aS*)-4-((R*)-2-(4-chloro-2-fluorophenyl)-2-methylbenzo[d][1,3]dioxol-4-yl)hexahydrofuro[3,4-b]pyrazin-1(2H)-yl)methyl)-1-(((S)-oxetan-2-yl)methyl)-1H-benzo[d]imidazole-6-carboxylic acid]", "values": [{"measurement": "EC50", "setting": "[1]", "result": 120, "unit": "nM"}, {"measurement": "EC50", "setting": "[2]", "result": 71, "unit": "nM"}]}]}
